Measured values published in patent US8865672B2, “Prevention of tissue ischemia and related methods” (The United States of America, as represented by the …, priority 2006, dated 2014).
Peptide text beside a SMILES is read from it.

Each molecule was assayed on NO/cGMP signaling (assay: cGMP signaling (NO-stimulated cGMP, immunoassay)). Details: concentration for 50% inhibition of effect.
Assay type: cell-based, human
Experimental: Vascular cells (endothelial) or HT-1080 cells (10^4 cells/well) grown overnight in 12-well culture in SM-GM containing 2% FCS or RPMI+10% FCS respectively and then weaned off serum over 48 h before treatment with NO donors and other agents in serum/additive free medium+0.1% BSA. Intracellular cGMP levels were determined using an enzyme immunoassay (Amersham, GE Health Care, UK). In other experiments fresh washed human platelets were incubated in Tyrode's buffer and the indicated treatment agents±NO and cGMP determined.

Row | Molecule | IC50
1 | CC[C@H](C)[C@H](N)C(=O)NCC(=O)N[C@@H](Cc1c[nH]c2ccccc12)C(=O)N[C@@H](CCCCN)C(=O)N[C@@H](CC(N)=O)C(=O)N[C@@H](Cc1ccccc1)C(=O)N[C@H](C(=O)N[C@@H](C)C(=O)N[C@@H](Cc1ccc(O)cc1)C(=O)N[C@@H](CCCNC(=N)N)C(=O)O)[C@@H](C)O [compound 37297, IGWKNFTAYR] (H-IGWKNFTAYR-OH) | > 10 µM
2 | C[C@H](N)C(=O)NCC(=O)N[C@@H](Cc1c[nH]c2ccccc12)C(=O)N[C@@H](CCCCN)C(=O)N[C@@H](CC(=O)O)C(=O)N[C@@H](Cc1ccccc1)C(=O)N[C@H](C(=O)N[C@@H](C)C(=O)N[C@@H](Cc1ccc(O)cc1)C(=O)N[C@@H](CCCNC(=N)N)C(=O)O)[C@@H](C)O [compound 37416, AGWKDFTAYR] (H-AGWKDFTAYR-OH) | ~1 µM
3 | CC[C@H](C)[C@H](N)C(=O)NCC(=O)N[C@@H](Cc1ccc(O)cc1)C(=O)N[C@@H](CCCCN)C(=O)N[C@@H](CC(=O)O)C(=O)N[C@@H](Cc1ccccc1)C(=O)N[C@H](C(=O)N[C@@H](C)C(=O)N[C@@H](Cc1ccc(O)cc1)C(=O)N[C@@H](CCCNC(=N)N)C(=O)O)[C@@H](C)O [compound 37417, IGYKDFTAYR] (H-IGYKDFTAYR-OH) | ~0.1 µM

Continued, values first:

Row | IC50 | Molecule
4 | > 10 µM | CC[C@H](C)[C@H](N)C(=O)NCC(=O)N[C@@H](Cc1c[nH]c2ccccc12)C(=O)N[C@@H](CCCCN)C(=O)N[C@@H](CC(=O)O)C(=O)N[C@@H](Cc1ccccc1)C(=O)N[C@@H](C)C(=O)N[C@@H](C)C(=O)N[C@@H](Cc1ccc(O)cc1)C(=O)N[C@@H](CCCNC(=N)N)C(=O)O [compound 37299, IGWKDFAAYR] (H-IGWKDFAAYR-OH)
5 | ~1 µM | CC(=O)N[C@@H](Cc1c[nH]c2ccccc12)C(=O)N[C@@H](CCCCN)C(=O)N[C@@H](CC(=O)O)C(=O)N[C@@H](Cc1ccccc1)C(=O)N[C@H](C(=O)N[C@@H](C)C(=O)N[C@@H](Cc1ccc(O)cc1)C(=O)N[C@@H](CCCNC(=N)N)C(=O)O)[C@@H](C)O [compound 37300, Ac-WKDFTAYR] (Ac-WKDFTAYR-OH)
6 | > 10 µM | CC[C@H](C)[C@H](N)C(=O)NCC(=O)N[C@@H](Cc1c[nH]c2ccccc12)C(=O)N[C@@H](C)C(=O)N[C@@H](CC(=O)O)C(=O)N[C@@H](Cc1ccccc1)C(=O)N[C@H](C(=O)N[C@@H](C)C(=O)N[C@@H](Cc1ccc(O)cc1)C(=O)N[C@@H](CCCNC(=N)N)C(=O)O)[C@@H](C)O [compound 37413, IGWADFTAYR] (H-IGWADFTAYR-OH)
7 | > 10 µM | CC[C@H](C)[C@H](N)C(=O)NCC(=O)N[C@@H](Cc1c[nH]c2ccccc12)C(=O)N[C@@H](Cc1c[nH]cn1)C(=O)N[C@@H](CC(=O)O)C(=O)N[C@@H](Cc1ccccc1)C(=O)N[C@H](C(=O)N[C@@H](C)C(=O)N[C@@H](Cc1ccc(O)cc1)C(=O)N[C@@H](CCCNC(=N)N)C(=O)O)[C@@H](C)O [compound 37414, IGWHDFTAYR] (H-IGWHDFTAYR-OH)
8 | 1 µM | CC[C@H](C)[C@H](N)C(=O)NCC(=O)N[C@@H](Cc1c[nH]c2ccccc12)C(=O)N[C@@H](CCCCN)C(=O)N[C@@H](CCC(=O)O)C(=O)N[C@@H](Cc1ccccc1)C(=O)N[C@H](C(=O)N[C@@H](C)C(=O)N[C@@H](Cc1ccc(O)cc1)C(=O)N[C@@H](CCCNC(=N)N)C(=O)O)[C@@H](C)O [compound 37415, IGWKEFTAYR] (H-IGWKEFTAYR-OH)

The molecules below were run on human platelets (assay: Thrombin-induced human platelet aggregation). Details: high shear, thrombin 0.2 U/ml, DEA/NO 10 μM.
Assay type: cell-based
Experimental: Platelets were pelleted from platelet-rich plasma (PRP) by centrifugation for 10 minutes at 200 g. They were then washed with acid citrate dextrose (ACD) (85 mM citric acid, 65 mM sodium citrate, 100 mM glucose, pH 5.1) at a ratio of 1:7 at room temperature. After pelleting the platelets again and removing the supernatant, the platelets were resuspended in 5 mL of Tyrode's buffer (137 mM NaCl, 3 mM KCl, 12 mM NaHCO3, 0.3 mM NaHPO4, 2 mM CaCl2, 1 mM MgCl2, 5.5 mM glucose, 5 mM HEPES, 3.5 mg/mL BSA, pH 7.4). The final platelet number was adjusted to […] in 500 μl/cuvette of Tyrode's buffer.
Aggregation of human platelets under high shear conditions was assessed using a standard optical aggregometer (Lumi-Dual Aggregometer, Chrono-Log Corp., Havertown, Pa.) at 37° C. and 1200 rpm in a volume of 500 μl buffer with a final platelet concentration of 2×10^5 platelets/μl over a 5 minute interval. Pre-incubation with TSP1 and TSP1-based agents was for 15 minutes prior to addition of thrombin and/or the rapidly releasing nitric oxide donor DEA/NO. In some experiments platelets were pre-incubated with the Rap1 inhibitor GGTI-298 (10 μM) (Calbiochem, La Jolla, Calif.) for 30 minutes prior to initiating aggregation. In other high shear aggregation experiments murine platelets were prepared as above with the following modifications. Mouse blood was collected by retro-orbital bleeding of anesthetized mice using heparinized tubes. PRP was prepared and then diluted with 4 vol. of Tyrodes containing 5 mM EDTA to prevent activation. After collection by centrifugation, platelets were resuspended in 2× initial PRP volume and held at room temperature for less than 1 hour before use. Aggregation conditions consisted of 250 μL of washed platelets stirred at 1200 rpm in a Chronolog Optical aggregometer at 37° C. DEA/NO (10 μM) was added 30 seconds prior to activation and 8-BrcGMP added 15 min prior to activation with 0.2 U/ml human thrombin. Data was collected using Chronolog “Aggrolink” software. Platelet aggregation under static conditions was assessed using a spectrophotometer (Beckman DU 640, Beckman Coulter, Fullerton, Calif.) and determined as a change in absorbance at 400 nm with continuous observation over a five minute interval. The cuvette was inverted once every 60 seconds. Pre-incubation with TSP1 and TSP1-based agents was for 15 minutes prior to addition of thrombin and/or DEA/NO to minimize the formation of thrombin-serpinthrombospondin complexes (Chang & Detwiler, Arch Biochem Biophys. 299:100-104, 1992), which interfere with thrombin-platelet interactions.
Fresh human platelets were suspended in Tyrode's buffer and under low shear conditions thrombin-stimulated aggregation measured as described. Platelets were then treated with peptide C6d (1 μM)±NO (10 μM DEA/NO) and thrombin and aggregation measure.

Row | Molecule | NO delay of thrombin-induced platelet aggregation
9 | FIRGGMYEGKK [compound 604, control peptide for 7N3] | no effect
10 | FIRVAIYEGKK [compound 605, control peptide for 7N3] | no effect
11 | fibrinogen | no significant effect

Same assay, conditions: static / low shear conditions, DEA/NO 10 μM

Row | Molecule | NO delay of thrombin-induced platelet aggregation
12 | KRFKQDGGWSHWSPWSS [p246] | inactive
13 | KRFYVVMWKK [4N1K, derivative of the 4N1-1 peptide with terminal lysines] | prevented an NO-stimulated delay in platelet aggregation
